In patent publication US7034039B2, “Fused heterocyclic compounds” (Takeda Pharmaceutical Company Limited, priority 2001, dated 2006):
Counter-ions that a name gives are not always drawn.

Tests used:
Wistar fatty rats = experiment: Plasma glucose-lowering effect and insulinotropic effect in rat (oral glucose tolerance test); type: in vivo; conditions: female Wistar fatty rats, 3 mg/kg orally 60 min before glucose load (1 g/kg), blood at 30 min after glucose load
Method: Plasma Glucose-lowering Effect and Insulinotropic Effect in Rat
Female Wistar fatty rats (17-week-old, 6 per group) were fasted overnight and blood was drawn from the tail vein. The plasma glucose level before administration of the test compound was measured. Then the test compound (3 mg/kg body weight/5 mL) suspended in 0.5% methyl cellulose was orally administered to the rats using a gastric tube. Oral glucose tolerance test (1 g/kg body weight/5 mL) was started 60 min later. Blood was drawn at 30 min after starting glucose load, and plasma glucose level and insulin level of the serum were measured.

[1] = target: T1, dipeptidyl peptidase IV in rat plasma (Rattus norvegicus, UniProt P14740); experiment: Determination of dipeptidyl peptidase IV inhibitory activity in rat plasma; type: biochemical; conditions: SD rat plasma, substrate Gly-Pro-p-NA, 30° C., absorbance 405 nm after 0 h and 1 h
T1 construct: Plasma (20 μl) prepared from blood of SD rat by a conventional method; from tissue; host or cells: plasma of SD rat
Method: Determination of Dipeptidyl Peptidase IV Inhibitory Activity in Rat Plasma
An N,N-dimethylformamide solution (1 μl) containing the test compound was added to a mixture of water (69 μl), 1M Tris-hydrochloride buffer (10 μl, pH 7.5) and 1 mM aqueous Gly-Pro-p-NA solution (100 μl) to prepare a mixed solution. Plasma (20 μl) prepared from blood of SD rat by a conventional method was added the above-mentioned, mixed solution and the enzyme reaction was started at 30° C. The absorbance after 0 h and 1 h was measured using a microplate reader at a wavelength of 405 nm and an increase (ΔODs) was determined. At the same time, an increase (ΔODc) in absorbance of the reaction mixture without the test compound, and an increase (ΔODb) in absorbance of the reaction mixture without the test compound and the enzyme were determined and percent inhibition of dipeptidyl peptidase IV enzyme activity was calculated from the following formula: {1-[(ΔODs−ΔODb)/(ΔODc−ΔODb)]}×100

[2] = target: T2, Caco-2-derived dipeptidyl peptidase IV (Homo sapiens, UniProt P27487); experiment: Determination of Caco-2-derived dipeptidyl peptidase IV inhibitory activity; type: biochemical; conditions: Caco-2 crude enzyme solution, substrate Gly-Pro-p-NA, 37° C., absorbance 405 nm after 0 h and 3 h
T2 construct: A dipeptidyl peptidase IV crude enzyme solution was prepared from culture cell of Caco-2 (ATCC HTB-37); endogenous in cells; host or cells: Caco-2 (ATCC HTB-37)
T2 sequence (P27487 whole entry): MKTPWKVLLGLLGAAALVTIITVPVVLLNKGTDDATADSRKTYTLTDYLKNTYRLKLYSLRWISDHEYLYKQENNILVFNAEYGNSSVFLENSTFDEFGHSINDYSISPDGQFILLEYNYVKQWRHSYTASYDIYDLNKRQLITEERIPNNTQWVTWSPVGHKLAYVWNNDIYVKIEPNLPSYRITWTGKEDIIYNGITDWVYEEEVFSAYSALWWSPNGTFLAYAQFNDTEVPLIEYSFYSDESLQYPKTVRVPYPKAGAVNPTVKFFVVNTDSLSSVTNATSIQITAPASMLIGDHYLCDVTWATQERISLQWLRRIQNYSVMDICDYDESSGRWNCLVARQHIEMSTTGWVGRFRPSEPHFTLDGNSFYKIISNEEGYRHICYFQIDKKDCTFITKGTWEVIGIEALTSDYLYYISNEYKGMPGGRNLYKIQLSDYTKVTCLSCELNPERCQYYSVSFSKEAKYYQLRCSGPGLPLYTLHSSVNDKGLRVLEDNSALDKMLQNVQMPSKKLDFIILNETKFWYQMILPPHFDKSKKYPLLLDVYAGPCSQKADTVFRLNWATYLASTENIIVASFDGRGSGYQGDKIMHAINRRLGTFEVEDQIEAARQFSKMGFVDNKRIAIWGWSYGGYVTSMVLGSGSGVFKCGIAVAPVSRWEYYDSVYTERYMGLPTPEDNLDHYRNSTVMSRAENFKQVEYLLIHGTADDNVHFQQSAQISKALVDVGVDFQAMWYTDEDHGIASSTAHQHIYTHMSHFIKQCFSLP
Method: 1) Preparation of Dipeptidyl Peptidase IV Crude Enzyme Solution
A dipeptidyl peptidase IV crude enzyme solution was prepared from culture cell of Caco-2 (ATCC HTB-37). The Caco-2 cells were cultured in D-MEM medium (manufactured by Nissui Pharmaceutical Co., Ltd.) containing 10% FBS (fetal calf serum (manufactured by GIBCO)). The cell extract was prepared by soaking the cells collected by removing the medium in 20 mM phosphate buffer. (pH 7.5) containing 0.5% Triton X-100, extracting for 30 min in an ice bath and separating the supernatant obtained by centrifugation 1500 g for 30 min. The cell extract (22 ml) was applied to a column of Sephadex G-200 (600 ml, manufactured by Pharmacia Corporation) equilibrated with 20 mM Tris-hydrochloride buffer (pH 7.5) and eluted with the same buffer. The elution was fractionated by 10 ml, examined for enzyme activity and 190 ml–280 ml fractions (90 ml) were collected. […]
An N,N-dimethylformamide solution (5 μl) containing the test compound was added to a mixture of water (25 μl), 1M Tris-hydrochloride buffer (10 μl, pH 7.5) and 1 mM aqueous glycylprolyl-p-nitroanilide (Gly-Pro-p-NA; manufactured by Backem AG) solution (50 μl) to prepare a mixed solution. […] The absorbance after 0 h and 3 h was measured using a microplate reader (Multiskan Bichromatic; manufactured by Labsystems) at a wavelength of 405 nm and an increase (ΔODs) was determined. […]

T1 sequence (P14740 38-767 limits assumed): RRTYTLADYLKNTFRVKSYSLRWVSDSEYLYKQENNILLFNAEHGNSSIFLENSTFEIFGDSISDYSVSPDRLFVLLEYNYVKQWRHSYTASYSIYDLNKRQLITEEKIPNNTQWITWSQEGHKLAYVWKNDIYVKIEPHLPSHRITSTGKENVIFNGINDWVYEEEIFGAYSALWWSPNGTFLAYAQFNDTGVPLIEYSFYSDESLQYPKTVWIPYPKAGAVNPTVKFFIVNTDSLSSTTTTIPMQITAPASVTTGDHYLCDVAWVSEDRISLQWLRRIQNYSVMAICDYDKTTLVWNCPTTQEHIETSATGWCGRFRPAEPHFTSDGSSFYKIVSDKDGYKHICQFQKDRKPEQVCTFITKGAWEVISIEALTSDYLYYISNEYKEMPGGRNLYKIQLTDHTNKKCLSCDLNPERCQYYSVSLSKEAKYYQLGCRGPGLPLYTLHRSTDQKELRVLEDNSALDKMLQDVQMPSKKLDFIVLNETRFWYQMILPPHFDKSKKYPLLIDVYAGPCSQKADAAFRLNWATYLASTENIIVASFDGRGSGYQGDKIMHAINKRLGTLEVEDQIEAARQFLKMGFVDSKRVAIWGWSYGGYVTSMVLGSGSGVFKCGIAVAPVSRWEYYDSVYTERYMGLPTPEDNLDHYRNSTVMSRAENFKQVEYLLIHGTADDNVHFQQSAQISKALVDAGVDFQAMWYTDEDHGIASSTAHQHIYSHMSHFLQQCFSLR

SMILES | melting point | also measured
CC(C)Cn1c(CN)c(-c2ccccc2)c2cc(Cl)ccc2c1=O [Example 118, 3-(Aminomethyl)-6-chloro-2-isobutyl-4-phenyl-1(2H)-isoquinolinone] | 123 to 124 °C | –
CSc1ccc2c(=O)n(CC(C)C)c(CN)c(-c3ccccc3)c2c1.Cl | 252 to 255 °C | –
CCCCOc1c(CN)n(CC(C)C)c(=O)c2ccc(NC(=O)C(C)C)cc12.Cl | 181 to 183 °C | –
CC(C)Cn1c(CN)c(-c2ccccc2)c2cc([S+](C)[O-])ccc2c1=O (centres unmarked) [Example 172, 3-(Aminomethyl)-2-isobutyl-6-(methylsulfinyl)-4-phenyl-1(2H)-isoquinolinone] | 167 °C (dec.) | –
CCCCOc1c(CN)n(CC(C)C)c(=O)c2ccc(-c3cnco3)cc12.Cl | 211 to 213 °C | –
CCCCOc1c(CN)n(CC(C)(C)C)c(=O)c2ccc(/C=C/C(N)=O)cc12.Cl (hydrate or solvate) | 187 to 188 °C | –
Cc1csc(-c2ccc3c(=O)n(CC(C)C)c(CN)c(-c4ccccc4)c3c2)n1 (hydrate or solvate) [Example 194, 3-(Aminomethyl)-2-isobutyl-6-(4-methyl-1,3-thiazol-2-yl)-4-phenyl-1(2H)-isoquinolinone] | 162 to 163 °C | –
CCCCOc1c(CN)n(CC2CC2)c(=O)c2ccc(-c3cnco3)cc12.Cl | 124 to 126 °C | –
CCCCOc1c(CN)n(CC(C)C)c(=O)c2ccc(C#N)cc12.Cl | 135 to 136 °C | –
CC(C)Cn1c(CN)c(-c2ccccc2)c2cc(S(C)(=O)=O)ccc2c1=O.Cl | 209 °C (dec.) | –
CCCCOc1c(CN)n(CC(C)C)c(=O)c2ccc(/C=C/C(N)=O)cc12.Cl | 223 to 225 °C | –
Cc1ccc(-c2c(CN)n(CC(C)C)c(=O)c3ccc(OCC(N)=O)cc23)cc1.Cl (hydrate or solvate) | 278 to 280 °C | –
CCCCOc1c(CN)n(CC2CC2)c(=O)c2ccc(C(N)=O)cc12.Cl (hydrate or solvate) | 164 to 165 °C | –
CC(C)Cn1c(CN)c(-c2ccc(Cl)cc2)c2cc(O)ccc2c1=O.Cl | 247 to 249 °C | –
CCCCOc1c(CN)n(CC(C)C)c(=O)c2ccc(C(N)=S)cc12.Cl | 200 to 202 °C | –
CC(C)Cn1c(CN)c(-c2ccccc2)c2cc(CC#N)ccc2c1=O.Cl | 142 to 144 °C | –
CC(C)Cn1c(CN)c(-c2ccccc2)c2cc(/C=C/C(N)=O)ccc2c1=O [Example 160, (E)-3-[3-(Aminomethyl)-2-isobutyl-1-oxo-4-phenyl-1,2-dihydro-6-isoquinolinyl]-2-propenamide] | 228 to 230 °C | –
CC(C)(C)Cn1c(CN)c(-c2ccccc2)c2cc(Cl)ccc2c1=O [Example 122, 3-(Aminomethyl)-6-chloro-2-neopentyl-4-phenyl-1(2H)-isoquinolinone] | 173 to 174 °C | –
CC(C)Cn1c(CN)c(-c2ccccc2)c2cc(C(N)=O)ccc2c1=O [Example 109, 3-Aminomethyl-2-isobutyl-4-phenyl-1(2H)-isoquinolinone-6-carboxamide hydrochloride [3-(aminomethyl)-2-isobutyl-1-oxo-4-phenyl-1,2-dihydro-6-isoquinolinecarboxamide hydrochloride]] | – | Plasma glucose level (Wistar fatty rats): 73 % of control; insulin level (Wistar fatty rats): 205 % of control
CC(C)Cn1c(CN)c(-c2ccc(F)cc2)c2cc(/C=C/C(=O)O)ccc2c1=O.Cl | 255 to 256 °C | –
CC(C)Cn1c(CN)c(-c2ccc(Cl)cc2)c2ccccc2c1=O [Example 124, 3-(Aminomethyl)-4-(4-chlorophenyl)-2-isobutyl-1(2H)-isoquinolinone] | 119 to 120 °C | –
CC(C)Cn1c(CN)c(-c2ccccc2)c2cc(-c3nsc(=O)[nH]3)ccc2c1=O.Cl | 232 to 237 °C | –

SMILES | melting point | also measured
CC1=NN(c2ccc3c(=O)n(CC(C)C)c(CN)c(-c4ccccc4)c3c2)CO1 [Example 166, 3-(Aminomethyl)-2-isobutyl-6-(5-methyl-1,3,4-oxadiazol-3-yl)-4-phenyl-1(2H)-isoquinolinone] | 179 to 181 °C | –
CC(=O)Nc1ccc2c(=O)n(CC(C)C)c(CN)c(-c3ccccc3)c2c1.Cl [Example 112, 6-Acetylamino-3-aminomethyl-2-isobutyl-4-phenyl-1(2H)-isoquinolinone hydrochloride] | – | IC50 [1]: 320 nM; Plasma glucose level (Wistar fatty rats): 76 % of control; insulin level (Wistar fatty rats): 255 % of control; IC50 [2]: 250 nM
Cc1ccc(-c2c(CN)n(CC(C)C)c(=O)c3ccccc23)cc1.Cl | 178 to 180 °C (dec.) | –
CCCCOc1c(CN)n(CC(C)C)c(=O)c2ccc(OCC(N)=O)cc12.Cl (hydrate or solvate) | 248 to 250 °C | –
CCCCOc1c(CN)n(CC(C)(C)C)c(=O)c2ccc(OCC(N)=O)cc12 (as salt: hydrochloride) [Example 95, 2-{{3-(Aminomethyl)-4-butoxy-2-neopentyl-1-oxo-1,2-dihydro-6-isoquinolinyl}oxy}acetamide hydrochloride] | 233 to 235 °C | –
CC(C)Cn1c(CN)c(-c2ccccc2)c2ccccc2c1=O [Example 123, 3-(Aminomethyl)-2-isobutyl-4-phenyl-1(2H)-isoquinolinone] | 129 to 130 °C | –
CC(=O)c1ccc2c(=O)n(CC(C)C)c(CN)c(-c3ccccc3)c2c1.Cl | 179 °C (dec.) | –
CC(C)Cn1c(CN)c(-c2ccccc2)c2cc(-c3noc(=O)[nH]3)ccc2c1=O.Cl | 253 °C (dec.) | –
CCn1c(CN)c(-c2ccccc2)c2cc(Cl)ccc2c1=O [Example 113, 3-(Aminomethyl)-6-chloro-2-ethyl-4-phenyl-1(2H)-isoquinolinone] | 126 to 127 °C | –
CC(C)Cn1c(CN)c(-c2ccccc2)c2cc(SCC(N)=O)ccc2c1=O [Example 171, 2-{[3-(Aminomethyl)-2-isobutyl-1-oxo-4-phenyl-1,2-dihydro-6-isoquinolinyl]sulfanyl}acetamide] | 218 to 220 °C | –
CC(C)Cn1c(CN)c(-c2ccc(F)cc2)c2cc(OCC(N)=O)ccc2c1=O.Cl | 189 to 190 °C | –
CCCCOc1c(CN)n(CC(C)(C)C)c(=O)c2ccc(OCC(N)=O)cc12 [Example 95, 2-{{3-(Aminomethyl)-4-butoxy-2-neopentyl-1-oxo-1,2-dihydro-6-isoquinolinyl}oxy}acetamide hydrochloride] | – | IC50 [1]: 180 nM; Plasma glucose level (Wistar fatty rats): 82 % of control; insulin level (Wistar fatty rats): 188 % of control; IC50 [2]: 280 nM
CCCCOc1c(CN)n(CC(C)(C)C)c(=O)c2ccc(CC(N)=O)cc12.Cl | 163 to 165 °C | –
CC(C)Cn1c(CN)c(-c2ccccc2)c2cc(/C=C/C(N)=O)ccc2c1=O.Cl (hydrate or solvate) | 223 to 225 °C | –
CCCCOc1c(CN)n(CC2CC2)c(=O)c2ccc(/C=C/C(N)=O)cc12.Cl | 188 to 190 °C | –
CCCCOc1c(CN)n(CC2CC2)c(=O)c2ccc(OCC(N)=O)cc12.Cl (hydrate or solvate) | 133 to 134 °C | –
Cc1ccc(-c2c(CN)n(CC(C)C)c(=O)c3ccc(O)cc23)cc1.Cl | 255 to 256 °C | –
CC(C)Cn1c(CN)c(-c2ccccc2)c2cc(-c3nn[nH]n3)ccc2c1=O.Cl | 218 to 220 °C | –
CC(C)Cn1c(CN)c(-c2ccccc2)c2cc(Br)ccc2c1=O [Example 106, 3-Aminomethyl-6-bromo-2-isobutyl-4-phenyl-1(2H)-isoquinolinone] | 129 to 130 °C | –
CC(C)Cn1c(CN)c(OCCCC(F)(F)F)c2cc(OCC(N)=O)ccc2c1=O.Cl (hydrate or solvate) | 147 to 148 °C | –
CC(C)Cn1c(CN)c(-c2cccc(F)c2)c2cc(OCC(N)=O)ccc2c1=O.Cl | 209 to 210 °C | –
